Measured values from patent publication US20130287823A1, “PATCH” (priority 2010, published 2013).
Structures can show the parent of a compound that is named as a salt. Where two headings read alike, the source gives them in different places.

Experiments:
[1] = Storage stability of midodrine in compounds (60° C., 20 days; discoloration and remaining midodrine by HPLC); format: physicochemical; details: 3 parts midodrine + 100 parts compound, sealed; for STORAGE STABILITY OF MIDODRINE: RATIO OF REMAINING MIDODRINE (% BY WEIGHT): HPLC
Protocol: Then the color of the mixture after storage was visually observed. When the color was found unchanged compared with that before the storage, the mixture was evaluated as “excellent.” When discoloration was found, the mixture was evaluated as “bad.”
The weight W5 (g) of non-decomposed midodrine remaining in the mixture after storage was quantified by HPLC, and the ratio (% by weight) of remaining midodrine to the amount W6 (g) of midodrine added was computed using the following formula (1).
Ratio(% by weight)of remaining midodrine=100×(W5/W6) (1)

[2] = Solubility of midodrine at 25° C. in monomers / compounds (saturated solution, HPLC)
Protocol: One hundred parts by weight of a monomer shown in TABLE 1 and 3 parts by weight of midodrine were sufficiently mixed to prepare a midodrine solution, and the dissolved state of midodrine in the midodrine solution was visually observed. The midodrine solution was stored at a temperature of 25° C. for 7 days, and then the dissolved state of midodrine was again visually observed. The dissolvability of midodrine was evaluated according to the following criteria.
A midodrine solution composed of 50 parts by weight of midodrine and 950 parts by weight of a compound shown in TABLE 2 and used as a solvent was prepared. Then the midodrine solution was maintained at 50° C. for 15 minutes and subjected to ultrasonic shaking in a water bath at 25° C. for 10 minutes. The resultant midodrine solution was transferred to a centrifuge tube and left to stand at 25° C. for 2 hours. Then the midodrine solution was centrifuged at a rotation speed of 3,000 rpm using a centrifuge, and the presence or absence of crystals of midodrine on the bottom of the centrifuge tube was observed. When no crystals of midodrine were deposited, the same procedure was repeated with the midodrine-to-compound weight ratio increased up to 200:800 to thereby prepare a saturated midodrine solution.
A certain amount of the supernatant of the saturated midodrine solution after centrifugation was collected, and the collected supernatant was subjected to HPLC measurement to quantify the weight W7 (g) of midodrine dissolved in the saturated midodrine solution.
(W8: weight (g) of compound used as solvent in saturated midodrine solution)

[3] = Dissolvability of midodrine in monomers (visual observation); format: physicochemical; details: 3 parts by weight midodrine in 100 parts by weight of the monomer; observed immediately and after 7 days at 25° C.
Description: High: No deposition of midodrine was found in any of the midodrine solution immediately after preparation and the midodrine solution after storage for 7 days.
Middle: Deposition of midodrine was found in the solution immediately after preparation, but no deposition of midodrine was found in the midodrine solution after storage for 7 days.
Low: Deposition of midodrine was found in the midodrine solution immediately after preparation and also in the midodrine solution after storage for 7 days.

**Q.** For `CC(C)CCCC(C)CCCC(C)CCCCC(C)CCCC(C)CCCC(C)C` (centres unmarked), which “STORAGE STABILITY OF MIDODRINE: DISCOLORATION TEST” value ([1]; colour observed visually) is on record?
**A.** EXCELLENT

**Q.** For `CC(O)CO` (centres unmarked) [PROPYLENE GLYCOL], which “STORAGE STABILITY OF MIDODRINE: DISCOLORATION TEST” value ([1]; colour observed visually) is on record?
**A.** EXCELLENT

**Q.** What about the “SOLUBILITY OF MIDODRINE” value [2] of the same compound?
**A.** 15.67 g

**Q.** Which “STORAGE STABILITY OF MIDODRINE: DISCOLORATION TEST” value ([1]; colour observed visually) does the source give for `CCCCCCCC/C=C\CCCCCCCCO` [OLEYL ALCOHOL] here?
**A.** BAD

**Q.** And the “SOLUBILITY OF MIDODRINE” value [2]?
**A.** 0.40 g

**Q.** For `C=C(C)C(=O)OCCCC` [BUTYL METHACRYLATE], which “DISSOLVABILITY OF MIDODRINE” value [3] is on record?
**A.** LOW

**Q.** What about the “SOLUBILITY OF MIDODRINE” value ([2]; in the monomer as solvent, 25° C., grams of midodrine per 100 g of solvent) of the same compound?
**A.** 0.10 g

**Q.** Which “STORAGE STABILITY OF MIDODRINE: DISCOLORATION TEST” value ([1]; colour observed visually) does the source give for `CC(C)CCCCCCCCCCCCCCCO` [ISOSTEARYL ALCOHOL] here?
**A.** EXCELLENT

**Q.** Which “DISSOLVABILITY OF MIDODRINE” value [3] does the source give for `C=CN1CCCC1=O` [1-VINYL-2-PYRROLIDONE] here?
**A.** HIGH

**Q.** And the “SOLUBILITY OF MIDODRINE” value [2]?
**A.** >3.0 g

**Q.** With `C=CC(=O)OCC` [ETHYL ACRYLATE] as the compound, how does the “DISSOLVABILITY OF MIDODRINE” value [3] read?
**A.** LOW

**Q.** And the “SOLUBILITY OF MIDODRINE” value [2]?
**A.** 0.25 g

**Q.** For `CCCCCCCCCCCCO` [LAURYL ALCOHOL], which “STORAGE STABILITY OF MIDODRINE: DISCOLORATION TEST” value ([1]; colour observed visually) is on record?
**A.** BAD

**Q.** With `C=CC(=O)O` [ACRYLIC ACID] as the compound, how does the “DISSOLVABILITY OF MIDODRINE” value [3] read?
**A.** HIGH

**Q.** For `CC(=O)OCC(COC(C)=O)OC(C)=O` [TRIACETIN], which “STORAGE STABILITY OF MIDODRINE: DISCOLORATION TEST” value ([1]; colour observed visually) is on record?
**A.** EXCELLENT

**Q.** What about the “SOLUBILITY OF MIDODRINE” value [2] of the same compound?
**A.** 0.70 g

**Q.** Which “DISSOLVABILITY OF MIDODRINE” value [3] does the source give for `C=C(C)C(=O)OCC(CC)CCCC` (centres unmarked) [2-ETHYLHEXYL METHACRYLATE] here?
**A.** LOW

**Q.** For `CCCCCCCCC(CO)CCCCCC` (centres unmarked) [HEXYLDECANOL], which “STORAGE STABILITY OF MIDODRINE: RATIO OF REMAINING MIDODRINE (% BY WEIGHT)” value [1] is on record?
**A.** 90.4 % BY WEIGHT

**Q.** What about the “STORAGE STABILITY OF MIDODRINE: DISCOLORATION TEST” value ([1]; colour observed visually) of the same compound?
**A.** EXCELLENT

**Q.** What about the “Value in parentheses after the liquid solubilizing aid (solubility of midodrine in the compound)” value (from here on “Value in parentheses”) [2] of the same compound?
**A.** HEXYLDECANOL (0.26)

**Q.** Which “DISSOLVABILITY OF MIDODRINE” value [3] does the source give for `C=C(C)C(=O)OCCCCCCCCCCCC` [DODECYL METHACRYLATE] here?
**A.** LOW

**Q.** And the “SOLUBILITY OF MIDODRINE” value [2]?
**A.** 0.02 g

**Q.** Which “STORAGE STABILITY OF MIDODRINE: RATIO OF REMAINING MIDODRINE (% BY WEIGHT)” value [1] does the source give for `CCCCCCCCCCC(CO)CCCCCCCC` (centres unmarked) [OCTYLDODECANOL] here?
**A.** 100.0 % BY WEIGHT

**Q.** And the “STORAGE STABILITY OF MIDODRINE: DISCOLORATION TEST” value ([1]; colour observed visually)?
**A.** EXCELLENT

**Q.** Which results are given for `CCCCCCCCCCCC(=O)OCCCCCC` [HEXYL LAURATE]?
**A.** STORAGE STABILITY OF MIDODRINE: DISCOLORATION TEST ([1]; colour observed visually): EXCELLENT; SOLUBILITY OF MIDODRINE [2]: 0.02 g

**Q.** For `NCCO` [MONOETHANOLAMINE], which “STORAGE STABILITY OF MIDODRINE: DISCOLORATION TEST” value ([1]; colour observed visually) is on record?
**A.** BAD

**Q.** For `CCCCCCCCCCCCCCCC(=O)OC(C)C` [ISOPROPYL PALMITATE], which “STORAGE STABILITY OF MIDODRINE: DISCOLORATION TEST” value ([1]; colour observed visually) is on record?
**A.** EXCELLENT

**Q.** What about the “Value in parentheses” value [2] of the same compound?
**A.** ISOPROPYL PALMITATE (0.02)

**Q.** With `CC(C)CCCCCCCCCCCCCCC(=O)O` [ISOSTEARIC ACID] as the compound, how does the “STORAGE STABILITY OF MIDODRINE: DISCOLORATION TEST” value ([1]; colour observed visually) read?
**A.** BAD

**Q.** Which “STORAGE STABILITY OF MIDODRINE: DISCOLORATION TEST” value ([1]; colour observed visually) does the source give for `CCCCCCCCCCCCCC(=O)OC(C)C` [ISOPROPYL MYRISTATE] here?
**A.** EXCELLENT

**Q.** What about the “Value in parentheses” value [2] of the same compound?
**A.** ISOPROPYL MYRISTATE (0.02)

**Q.** With `CCOC(=O)CC(O)(CC(=O)OCC)C(=O)OCC` [TRIETHYL CITRATE] as the compound, how does the “STORAGE STABILITY OF MIDODRINE: DISCOLORATION TEST” value ([1]; colour observed visually) read?
**A.** EXCELLENT

**Q.** Which “STORAGE STABILITY OF MIDODRINE: DIS[…]” value ([1]; colour observed visually) does the source give for `OCCCCO` [BUTYLENE GLYCOL] here?
**A.** EXCELLENT

**Q.** What about the “SOLUBILITY OF MIDODRINE” value [2] of the same compound?
**A.** 7.72 g

**Q.** Which “STORAGE STABILITY OF MIDODRINE: RATIO OF REMAINING MIDODRINE (% BY WEIGHT)” value [1] does the source give for `CCCCCCC(O)CO` (centres unmarked) [OCTANEDIOL] here?
**A.** 48.0 % BY WEIGHT

**Q.** And the “STORAGE STABILITY OF MIDODRINE: DISCOLORATION TEST” value ([1]; colour observed visually)?
**A.** BAD

**Q.** What about the “SOLUBILITY OF MIDODRINE” value [2] of the same compound?
**A.** 1.78 g
